In the OligoGym collection:
Several values for one entry are separate records, joined by “and”; a condition that tells them apart may be missing. Equal values may be shown once. After the bases stand the sugars from the 5' end (letter, count) and the backbone: PS all phosphorothioate, else s phosphorothioate and o phosphodiester by linkage. Methylation of C is not given here. e = 2'-O-(2-methoxyethyl) (MOE); k = constrained ethyl (cEt); d = 2'-deoxy (DNA); m = 2'-O-methyl

Molecular target: HSD17B13
Conditions: ASO, HepaRG

Sequence	target mRNA inhibition (1 µM)	also measured
TGATATTCTGTGGCAT (sugars k3 d10 k3, PS)	69%	target mRNA inhibition (0.02 µM): 0%; target mRNA inhibition (0.078 µM): 0%; target mRNA inhibition (0.313 µM): 22%; target mRNA inhibition (1.25 µM): 64%; target mRNA inhibition (5 µM): 82%
TGATCTCTTAGCTGTG (sugars k3 d10 k3, PS)	59%	–
TGATGTAGTGGGAGTC (sugars k3 d1 m1 d8 k3, PS)	43%	–
TGATGTAGTGGGAGTC (sugars kkdddddddddkekek, PS)	46%	–
TGATTGAGTTCTCCAC (sugars k3 d10 k3, PS)	48%	–
TGCAAAGTTAATAGGA (sugars k3 d10 k3, PS)	43%	–
TGCAAGATTTACTTCC (sugars k3 d10 k3, PS)	45%	–
TGCAAGTTTATCAGTA (sugars k3 d10 k3, PS)	70%	target mRNA inhibition (0.02 µM): 28%; target mRNA inhibition (0.078 µM): 32%; target mRNA inhibition (0.313 µM): 62%; target mRNA inhibition (1.25 µM): 86%; target mRNA inhibition (5 µM): 92%
TGCAGATTATTATGTG (sugars k3 d10 k3, PS)	38%	–
TGCATAAGAGATGAGT (sugars k3 d10 k3, PS)	19%	–
TGCATCTTAAGATACC (sugars k3 d10 k3, PS)	81%	–
TGCATTAATGCCACCC (sugars k3 d10 k3, PS)	22%	–
TGCCAAACCAATGTTT (sugars k3 d10 k3, PS)	32%	–
TGCCAAACCAATGTTT (sugars kkdddddddddkekek, PS)	61%	–
TGCCAACACTAATCTC (sugars k3 d10 k3, PS)	30%	–
TGCCTGCTGAAACTTG (sugars k3 d10 k3, PS)	31%	–
TGCTAAAAGCTCACCA (sugars k3 d10 k3, PS)	49%	–
TGCTAGTGCCAAACCA (sugars k3 d10 k3, PS)	78%	target mRNA inhibition (0.02 µM): 3%; target mRNA inhibition (0.078 µM): 9%; target mRNA inhibition (0.313 µM): 49%; target mRNA inhibition (1.25 µM): 58%; target mRNA inhibition (5 µM): 89%

Sequence	target mRNA inhibition (1 µM)	also measured
TGCTGGAACAATATGG (sugars k3 d10 k3, PS)	36%	–
TGGAAACATGCTTGGC (sugars k3 d10 k3, PS)	62%	–
TGGAAGATTAATCATA (sugars k3 d10 k3, PS)	12%	–
TGGAATGCTACTTGAA (sugars k3 d9 k3 e1, PS)	57%	–
TGGATTACATACAAGA (sugars k3 d10 k3, PS)	68% and 50%	target mRNA inhibition (0.02 µM): 0%; target mRNA inhibition (0.078 µM): 0%; target mRNA inhibition (0.313 µM): 21%; target mRNA inhibition (1.25 µM): 58%; target mRNA inhibition (5 µM): 87%
TGGCATGGCTACAGAT (sugars k3 d1 m1 d8 k3, PS)	57%	–
TGGCATGGCTACAGAT (sugars k3 d9 k3 e1, PS)	68%	target mRNA inhibition (0.02 µM): 26%; target mRNA inhibition (0.078 µM): 22%; target mRNA inhibition (0.313 µM): 39%; target mRNA inhibition (1.25 µM): 75%; target mRNA inhibition (5 µM): 70%
TGGCATGGCTACAGAT (sugars k3 d10 k3, PS)	57%	–
TGGCTACAGATTGGAA (sugars k3 d10 k3, PS)	55%	–
TGGGACCAAGGATATA (sugars k3 d1 m1 d8 k3, PS)	51%	–
TGGGACCAAGGATATA (sugars k3 d9 k3 e1, PS)	55%	–
TGGGACCAAGGATATA (sugars k3 d10 k3, PS)	20%	–
TGGGATAGTGGAGGAA (sugars k3 d10 k3, PS)	13%	–
TGGTAACGGTGATCAA (sugars k3 d9 k3 e1, PS)	35%	–
TGGTAAGGAGTAGTGG (sugars k3 d10 k3, PS)	34%	–
TGGTGAACCCAGTATT (sugars k3 d10 k3, PS)	0%	–
TGGTTCAGTCCTTGTG (sugars k3 d10 k3, PS)	50%	–
TGTAAAGTTTGTTAGA (sugars k3 d10 k3, PS)	35%	–
